Data on 58 molecules can be found in patent US10584134B2, “Use of physiological cooling active ingredients, and agents containing such active ingredients” (SYMRISE AG, priority 2009, dated 2020).

Counter-ions that a name gives are not always drawn.

This experiment concerns the target human TRPM8 receptor (Homo sapiens (Human), UniProt Q7Z2W7). As to the kind of experiment: Assay on TRPM8 modulators (Ca2+-sensitive dye, HEK293-TRPM8 test cells, EC50 determination). Type of experiment: cell-based. The following applies: assay according to reference example 3. An excerpt: As a test cell system the human TRPM8 DNA (see plasmid pInd-M8 above) was used to prepare a stable transfixed HEK293 cell line. Here preference is for HEK293 which via the plasmid introduced offers the possibility of induction of the TRPM8 expression by means of tetracycline.
The agonisation or antagonisation of the receptor can be quantified by means of a Ca^2+-sensitive dye (e.g. FURA, Fluo-4, etc.).
To begin with, in a manner known per se, in cell culture flasks a fresh culture of transformed HEK cells is prepared. The HEK293-TRPM8 test cells are removed using trypsin from the cell culture flasks and 40 000 cells/well are sown with 100 μl medium in 96-well plates (Greiner #655948 Poly-D-lysine coated). In order to induce the TRPM8 receptor the growth medium tetracycline is mixed in (DMEM/HG, 10% FCS tetracycline-free, 4 mM L-glutamine, 15 μg/ml blasticidin, 100 μg/ml hygromycin B, 1 μg/ml tetracycline). The next day the cells are charged with Fluo-4Am dye and the test is performed.
The test substances are used in triplicate in concentrations of between 0.1 and 200 μm in the assay. Normally the compounds are kept ready in DMSO solutions and diluted for the assay to a maximum DMSO concentration of 2%.

Sequence of human TRPM8 receptor (Q7Z2W7 whole entry): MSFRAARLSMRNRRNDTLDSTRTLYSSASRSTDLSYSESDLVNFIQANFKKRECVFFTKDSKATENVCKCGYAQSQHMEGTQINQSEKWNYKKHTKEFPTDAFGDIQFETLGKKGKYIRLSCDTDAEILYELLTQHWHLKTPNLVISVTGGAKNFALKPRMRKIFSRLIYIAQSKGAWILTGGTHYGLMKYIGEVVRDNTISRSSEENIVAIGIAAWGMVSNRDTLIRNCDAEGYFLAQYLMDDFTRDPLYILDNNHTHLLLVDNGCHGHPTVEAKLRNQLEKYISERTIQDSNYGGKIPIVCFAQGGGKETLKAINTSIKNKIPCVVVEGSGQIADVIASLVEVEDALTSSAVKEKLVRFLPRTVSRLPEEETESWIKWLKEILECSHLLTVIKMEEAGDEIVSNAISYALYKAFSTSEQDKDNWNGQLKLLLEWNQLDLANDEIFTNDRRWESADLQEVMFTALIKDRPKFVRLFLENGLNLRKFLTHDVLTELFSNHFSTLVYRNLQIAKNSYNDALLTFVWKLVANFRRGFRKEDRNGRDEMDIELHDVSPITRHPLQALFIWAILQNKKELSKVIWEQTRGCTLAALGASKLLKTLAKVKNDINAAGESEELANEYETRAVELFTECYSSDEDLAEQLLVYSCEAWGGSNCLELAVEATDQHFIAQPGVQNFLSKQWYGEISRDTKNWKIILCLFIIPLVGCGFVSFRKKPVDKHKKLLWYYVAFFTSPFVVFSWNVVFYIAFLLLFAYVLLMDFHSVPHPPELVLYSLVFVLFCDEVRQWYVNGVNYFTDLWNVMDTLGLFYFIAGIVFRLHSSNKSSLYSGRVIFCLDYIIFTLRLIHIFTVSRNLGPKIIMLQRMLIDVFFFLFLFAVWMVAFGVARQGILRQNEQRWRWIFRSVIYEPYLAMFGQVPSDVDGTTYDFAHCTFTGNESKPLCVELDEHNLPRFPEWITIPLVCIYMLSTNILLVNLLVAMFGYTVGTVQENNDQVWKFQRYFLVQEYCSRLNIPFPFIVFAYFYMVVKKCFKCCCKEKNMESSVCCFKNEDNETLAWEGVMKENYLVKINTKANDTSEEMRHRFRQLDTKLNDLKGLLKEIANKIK

Turning to `CC[C@@H](C)Nc1nc(-c2ccccn2)ncc1OC` (stereo in doubt) [Compound 2-5, Sec-butyl-(5-methoxy-2-pyridin-2-yl-pyrimidin-4-yl)-amine], the EC50 (Table B, structure type 2) came to 100 nM. In other words, the sub-micromolar range. For `O=C1CCCC2=C1C1(CC3c4ccccc4CCN23)SCCS1` (stereo not shown) [Compound 1-1, 2,3,4,5,6,10b,11,12-octahydro-spiro[4b-azachrysene-12,2′-[1,3]dithioland-]-1-one], under “Table A, structure type 1”, the EC50 turned out to be 100 nM.

For the molecule `CC1(C)CC(=O)C2=C(C1)N1CCc3ccccc3C1CC21SCCS1` (stereo not shown) [Compound 1-2, 2,3,4,5,6,10b,11,12-octahydro-3,3-dimethyl-spiro[4b-azachrysene-12,2′-[1,3]dithiolan]-1-one], the response (Table A, structure type 1) was half-maximal at 600 nM (EC50). Consider `CC1OC(=O)C2=C1N1CCc3ccccc3C1CC21SCCS1` (stereo not shown) [Compound 1-3, 5,6,10b,11-tetrahydro-3-methyl-spiro[12H-benzo[a]furo[3,4-f]quinolizin-12,2′-[1,3]dithiolan]-1(3H)one], for which, for the setting “Table A, structure type 1”, the EC50 came out at 700 nM.

`O=C1CCCC2=C1C1(CC3c4ccccc4CCN23)SCCCS1` (stereo not shown) [Compound 1-4, 2,3,4,5,6,10b,11,12-octahydro-spiro[4b-azachrysene-12,2′-[1,3]dithian]-1-one]: under “Table A, structure type 1”, the response was half-maximal at 3100 nM (EC50). Molecule `CC1(C)CC(=O)C2=C(C1)N1CCc3ccccc3C1CC21SCCCS1` (stereo not shown) [Compound 1-5, 2,3,4,5,6,10b,11,12-octahydro-3,3-dimethyl-spiro[4b-azachrysene-12,2′-[1,3]dithian]-1-one] returned an EC50 (Table A, structure type 1) of 1400 nM. In turn, `C[C@H]1OC(=O)C2=C1N1CCc3ccccc3C1CC21SCCCS1` (stereo partly shown) [Compound 1-6] had an EC50 (Table A, structure type 1) of 200 nM. Compared with the last molecule, the EC50 is about 7-fold lower. In turn, `C[C@H]1OC(=O)C2=C1N1CCc3ccccc3C1CC21[S+]([O-])CCS1(=O)=O` (stereo partly shown) [Compound 1-7] displayed an EC50 (Table A, structure type 1) of 700 nM. Molecule `CC1(C)CC(=O)C2=C(C1)N1CCc3ccccc3C1CC21[S+]([O-])CCS1(=O)=O` (stereo not shown) [Compound 1-8] displayed an EC50 (Table A, structure type 1) of 9800 nM.

For `C[C@H]1OC(=O)C2=C1N1CCc3ccccc3C1CC2=O` (stereo partly shown) [Compound 1-9], the EC50 (Table A, structure type 1) was found to be 10000 nM. Consider `COc1cnc(-c2ccccn2)nc1NC(C)C` [Compound 2-1, Isopropyl-(5-methoxy-2-pyridin-2-yl-pyrimidin-4-yl)-amine], for which, where the note is “Table B, structure type 2”, a half-maximal effect (EC50) was put at 100 nM.

On to `COc1cnc(-c2ccccn2)nc1NC1CCC1` [Compound 2-3, Cyclobutyl-(5-methoxy-2-pyridin-2-yl-pyrimidin-4-yl)-amine], for which the EC50 (Table B, structure type 2) stood at 800 nM. On the same count and under the same terms, under `COc1cnc(-c2ccccn2)nc1N1CCOCC1` [Compound 2-4] stands 1000 nM.

In turn, `COc1cnc(-c2ccccn2)nc1NC(C)CCO` (stereo not shown) [Compound 2-9] gave an EC50 (Table B, structure type 2) of 1000 nM. Where the note is “Table B, structure type 2”, `COCC(C)Nc1nc(-c2ccccn2)ncc1OC` (stereo not shown) [Compound 2-10] gave an EC50 of 2200 nM. Take `COc1cnc(-c2ccccn2)nc1NCC1CC1` [Compound 2-11]: it took 1200 nM to reach a half-maximal effect (Table B, structure type 2) (EC50). The molecule `COc1cnc(-c2ccccc2)nc1N1CCOCC1` [Compound 2-13] yielded an EC50 (Table B, structure type 2) of 11700 nM.

Molecule `CCc1cnc(-c2ccccn2)nc1NC(C)C` [Compound 2-14, (5-ethyl-2-pyridin-2-yl-pyrimidin-4-yl)-isopropyl-amine] yielded a concentration for a half-maximal effect (EC50) (Table B, structure type 2) of 400 nM. The same measure, in the same setting: under `COc1cnc(-c2ccccn2)nc1NC(C)C` [Compound 2-15, Isopropyl-(5-methoxy-2-pyridin-2-yl-pyrimidin-4-yl)-ammonium citrate] stands 800 nM; under `COc1cnc(-c2ccccn2)nc1NC(C)C` [Compound 2-16, Isopropyl-(5-methoxy-2-pyridin-2-yl-pyrimidin-4-yl)-ammonium fumarate], 1600 nM. Where the note is “Table B, structure type 2”, `COc1cnc(-c2ccccn2)nc1NC(C)C` [Compound 2-17, Isopropyl-(5-methoxy-2-pyridin-2-yl-pyrimidin-4-yl)-ammonium malate] came in with an EC50 of 400 nM. The molecule `COc1cnc(-c2ccccn2)nc1NC(C)C` [Compound 2-18, Isopropyl-(5-methoxy-2-pyridin-2-yl-pyrimidin-4-yl)-ammonium tartrate] gave a concentration giving a half-maximal response (EC50) (Table B, structure type 2) of 500 nM. This EC50 and that of the molecule before are within 1.5-fold of each other. On to `COc1cnc(-c2ccccn2)nc1NC(C)C` [Compound 2-19, Isopropyl-(5-methoxy-2-pyridin-2-yl-pyrimidin-4-yl)-ammonium succinate], for which, for the setting “Table B, structure type 2”, the EC50 was determined as 300 nM. As for `COc1cnc(-c2ccccn2)nc1NC(C)C` [Compound 2-20], for the setting “Table B, structure type 2”, the EC50 was 900 nM. Where the note is “Table B, structure type 2”, `COc1cnc(-c2ccccn2)nc1NC(C)C` [Compound 2-22] came in with a concentration for a half-maximal effect (EC50) of 700 nM. `O=C(/C=C/c1ccc2c(c1)OCO2)N(c1ccccn1)C1CCCCC1` [Compound 3-1, (E)-3-benzo[1,3]dioxol-5-yl-N-cyclohexyl-N-pyridin-2-yl-acrylamide] returned an EC50 (Table C, structure type 3) of 100 nM. That is a sub-micromolar value. In turn, `O=C(/C=C/c1ccc2c(c1)OCO2)N(C1CCCCC1)C1CCCCC1` [Compound 3-2] registered an EC50 (Table C, structure type 3) of 11800 nM. Against the preceding molecule, the EC50 is about 120-fold higher. For `O=C(/C=C/c1ccc2c(c1)OCO2)N(c1ccccc1)C1CCCCC1` [Compound 3-3], the midpoint of the response (Table C, structure type 3), the EC50, lay at 900 nM. For `CCN(C(=O)/C=C/c1ccc2c(c1)OCO2)C1CCCCC1` [Compound 3-4], the midpoint of the response (Table C, structure type 3), the EC50, lay at 800 nM. `CC(C)N(C(=O)/C=C/c1ccc2c(c1)OCO2)C1CCCCC1` [Compound 3-5, (E)-3-benzo[1,3]dioxol-5-yl-N-cyclohexyl-N-isopropyl-acrylamide]: the EC50 (Table C, structure type 3) stood at 200 nM.

As for `O=C(/C=C/c1ccc2c(c1)OCO2)N(c1ccccc1)c1ccccc1` [Compound 3-6, (E)-3-benzo[1,3]dioxol-5-yl-N,N-diphenyl-acrylamide], under “Table C, structure type 3”, the concentration for a half-maximal effect (EC50) came to 800 nM. Molecule `CCCN(C(=O)/C=C/c1ccc2c(c1)OCO2)c1ccccc1` [Compound 3-7] returned an EC50 (Table C, structure type 3) of 1100 nM. This EC50 and that of the molecule before are within 1.5-fold of each other. The molecule `CC(C)N(C(=O)/C=C/c1ccc2c(c1)OCO2)c1ccccc1` [Compound 3-8] came in with an EC50 (Table C, structure type 3) of 600 nM. For the molecule `CCCCN(C(=O)/C=C/c1ccc2c(c1)OCO2)c1ccccc1` [Compound 3-9], the EC50 (Table C, structure type 3) came to 700 nM. For `O=C(/C=C/c1ccc2c(c1)OCO2)N(Cc1ccccc1)c1ccccc1` [Compound 3-10], where the note is “Table C, structure type 3”, the response was half-maximal at 1200 nM (EC50). On to `CCN(C(=O)/C=C/c1ccc2c(c1)OCO2)c1ccccn1` [Compound 3-11], for which the EC50 (Table C, structure type 3) is 6200 nM. Take `O=C(/C=C/c1ccc2c(c1)OCO2)N(Cc1ccccc1)c1ccccn1` [Compound 3-12]: the EC50 (Table C, structure type 3) amounted to 700 nM. `CC(C)N(Cc1ccccc1)C(=O)/C=C/c1ccc2c(c1)OCO2` [Compound 3-13] showed an EC50 (Table C, structure type 3) of 3900 nM. Compared with the last molecule, the EC50 is about 5.6-fold higher.

Regarding `CCN(Cc1ccccc1)C(=O)/C=C/c1ccc2c(c1)OCO2` [Compound 3-14], the EC50 (Table C, structure type 3) was 1500 nM.

For the molecule `CCN(CC)C(=O)/C=C/c1ccc2c(c1)OCO2` [Compound 3-15], the EC50 (Table C, structure type 3) amounted to 12300 nM. As to `CC(C)CN(C(=O)/C=C/c1ccc2c(c1)OCO2)c1ccc(Cl)cc1` [Compound 3-16], the EC50 (Table C, structure type 3) was determined as 8200 nM. Still for that read-out and setting: under `COc1ccc(/C=C/C(=O)N(c2ccccn2)C2CCCCC2)cc1` [Compound 3-17, 4-methoxycinammic acid-N-cyclohexyl-N-2-pyridylamide] stands 400 nM; under `COc1ccc(/C=C/C(=O)N(C2CCCCC2)C2CCCCC2)cc1` [Compound 3-18, (E)-N,N-dicyclohexyl-3-(4-methoxy-phenyl)-acrylamide], 100 nM. For the molecule `COc1ccc(/C=C/C(=O)N(c2ccccc2)C2CCCCC2)cc1` [Compound 3-19], a half-maximal effect (Table C, structure type 3) (EC50) was put at 700 nM.

The molecule `COc1ccc(/C=C/C(=O)N(c2ccccc2)c2ccccc2)cc1` [Compound 3-20, 4-methoxycinammic acid-N,N-diphenylamide] registered a concentration giving a half-maximal response (EC50) (Table C, structure type 3) of 1100 nM.

Regarding `CCCN(C(=O)/C=C/c1ccc(OC)cc1)c1ccccc1` [Compound 3-21], the EC50 (Table C, structure type 3) worked out at 1700 nM. On the same count and under the same terms, next, `COc1ccc(/C=C/C(=O)N(c2ccccc2)C(C)C)cc1` [Compound 3-22]: 1300 nM; `COc1ccc(/C=C/C(=O)N(Cc2ccccc2)c2ccccc2)cc1` [Compound 3-23]: 3200 nM; `COc1ccc(/C=C/C(=O)N(Cc2ccccc2)c2ccccn2)cc1` [Compound 3-24]: 2200 nM.

On to `O=C(/C=C/c1ccccc1)N(c1ccccn1)C1CCCCC1` [Compound 3-25, Cinammic acid-N-cyclohexyl-N-2-pyridylamide], for which the EC50 (Table C, structure type 3) was 2300 nM.

Under “Table C, structure type 3”, `O=C(/C=C/c1ccccc1)N(c1ccccc1)C1CCCCC1` [Compound 3-26, (E)-N-cyclohexyl-3,N-diphenyl-acrylamide] came in with an EC50 of 600 nM. This EC50 lies about 3.8-fold lower than the previous one. `O=C(/C=C/c1ccccc1)N(c1ccccc1)c1ccccc1` [Compound 3-27, Cinammic acid-N,N-diphenylamide] had an EC50 (Table C, structure type 3) of 2900 nM. On to `O=C(/C=C/c1ccccc1)N(Cc1ccccc1)c1ccccc1` [Compound 3-28], for which, for the setting “Table C, structure type 3”, the EC50 amounted to 2400 nM. This EC50 and that of the molecule before are within 1.5-fold of each other. Molecule `CC(C1CC1)N(C(=O)/C=C/c1ccccc1)c1ccccc1` (stereo not shown) [Compound 3-29] gave an EC50 (Table C, structure type 3) of 800 nM. `Cc1ccccc1/C=C/C(=O)N(c1ccccn1)C1CCCCC1` [Compound 3-30] gave an EC50 (Table C, structure type 3) of 400 nM.

For the setting “Table C, structure type 3”, `Cc1cccc(/C=C/C(=O)N(c2ccccn2)C2CCCCC2)c1` [Compound 3-31, (E)-N-cyclohexyl-N-pyridin-2-yl-3-m-tolyl-acrylamide] returned an EC50 of 300 nM. With `Cc1ccc(/C=C/C(=O)N(c2ccccn2)C2CCCCC2)cc1` [Compound 3-32, (E)-N-cyclohexyl-N-pyridin-2-yl-3-p-tolyl-acrylamide], the EC50 (Table C, structure type 3) is 300 nM. Under “Table C, structure type 3”, `Cc1ccc(/C=C/C(=O)N(C2CCCCC2)C2CCCCC2)cc1` [Compound 3-33] gave an EC50 of 2100 nM.

Broadly, the EC50 is the concentration that produces a half-maximal response. The low end stands for greater potency, the high end for weaker potency.
